Source: the NIST ThermoML archive (doi:10.1016/j.jct.2004.07.024)
Numbers after ± are expanded uncertainties.

Legend:
[1] = refractive index (Na D-line) (dimensionless); settings: 293.15 K; 101.33 kPa; Liquid; Standard Abbe refractometry
[2] = 298.15 K; 101.33 kPa; Liquid

SMILES	refractive index [1]	mass density [2] [kg/m3]
C[S+](C)[O-] [dimethyl sulfoxide]	1.4785 ± 0.0004	1095.62 ± 0.32
Cc1ccccc1 [toluene]	1.4965 ± 0.0006	862.14 ± 0.94
C=Cc1ccccc1 [styrene]	1.546 ± 0.0005	901.51 ± 0.54
c1ccccc1 [benzene]	1.5009 ± 0.0004	873.56 ± 0.35
CCc1ccccc1 [ethylbenzene]	1.4962 ± 0.0005	862.44 ± 0.55
